Reference: article PMC12388523, “Flavonoids and Sesquiterpene Lactones from Lychnophora ericoides (Arnica-Do-Cerrado) and Their In Vitro Effects on Multiple Myeloma and Acute Myeloid Leukemia” (Metabolites, 2025)

What was measured:
Type in all cases: cell-based
KMS-12-PE cells [1] = experiment: Metabolic activity, resazurin staining, KMS-12-PE; settings: KMS-12 PE; for Metabolic activity, mean percentage ± SE: 72 h, relative to control
Method: (§1) Acute myeloid leukemia cell line HL-60 and multiple myeloma cell lines AMO-1 and KMS-12-PE were obtained from the German Collection of Microorganisms and Cell Cultures (DSMZ), Braunschweig, Germany, and non-tumorigenic stromal cell line HS-5 was acquired from the American Type Culture Collection (ATCC, Manassas, VA, USA). All cell lines were cultured in RPMI 1640 medium without phenol red (Pan Biotech, Aidenbach, Germany), supplemented with 2 mM glutamine, 100 U/mL penicillin, 100 µg/mL streptomycin (Sigma-Aldrich, St. Louis, MO, USA), and 10% fetal bovine serum (FBS Maximus, Catus Biotech GmbH, Tutzing, Germany) at 37 °C in a humidified atmosphere of 5% CO2/95% air. Cells were fed twice weekly. Logarithmically growing cells were resuspended at 1 × 10^5 cells/mL, plated in triplicate in round-bottom 96-well plates (100 µL per well; Falcon, Becton Dickinson, Franklin Lakes, NJ, USA), and incubated at 37 °C in 5% CO2/95% air for 2 h. Subsequently, the compounds were adjusted in the cell culture medium to reach the final concentrations in a total volume of 150 µL and incubated for an additional 72 h. Cell proliferation was assessed by [^3H]-thymidine uptake. Each well was exposed to 2 µCi [^3H]-thymidine (Hartmann Analytic, Braunschweig, Germany) during the final 12–16 h of incubation. Cells were harvested using a semi-automated device, and [^3H]-thymidine incorporation (expressed in counts per minute, cpm) was measured with a scintillation counter (MicroBeta TriLux, PerkinElmer, Waltham, MA, USA). Metabolic activity was assessed by resazurin staining. Resazurin (Carl Roth, Karlsruhe, Germany) was dissolved in distilled water at a concentration of 0.1 mg/mL, and 15 µL of this solution was added to each well, followed by a 2 h incubation at 37 °C. Relative fluorescence units (RFUs) were measured using a Synergy H1 plate reader equipped with a 560 nm excitation/590 nm emission filter set (BioTek; Agilent, Santa Clara, CA, USA). Proliferation and metabolic activity in the absence of compounds were defined as 100% (control), and the values for compound-treated samples were expressed as percentages relative to the control. Selectivity indices were calculated by dividing the IC50 value of each compound against HS-5 cells through the IC50 values against the investigated cell lines.
(§2) The Wilcoxon Rank Sum Test was used to analyze proliferation and metabolic activity in the absence and presence of varying compound concentrations (NCSS 2007 software, version 07.1.2, Kaysville, UT, USA). A p-value < 0.05 was considered statistically significant. IC50 values were calculated using GraphPad Prism 10.1.2. This software reports 95% confidence intervals instead of standard errors. […] Nonetheless, the figures clearly illustrate the IC50 values due to the narrow concentration range tested.
(§3) Proliferation inhibition often leads to cell death. Therefore, the cytotoxic activity of the compounds was further evaluated using a modified 3-(4,5-dimethylthiazol-2-yl)-2,5-diphenyltetrazolium bromide (MTT) assay, the resazurin (Alamar Blue) assay. Metabolically active cells reduce the non-fluorescent dye resazurin to the fluorescent dye resorufin via mitochondrial reductase activity, which correlates with cell viability. In the first step the metabolic activity of the four isolated flavonoids was investigated, showing a dose-dependent reduction, but to a much lower extent than in the proliferation assays (Table A2). In fact, only 7,3′,4′-trimethoxymyricetin (2) inhibited the metabolic activity of all four cell lines by more than 50% at a concentration of 100 µM.

MOLM-13 cells [2] = experiment: Proliferation, [3H]-thymidine uptake, MOLM-13; settings: for mean percentage of proliferation ± SE: 72 h, relative to control
Method: [The source words this procedure for another cell line and reports this cell line under the same test.] as §1, §2

HL-60 cells [3] = experiment: Proliferation, [3H]-thymidine uptake, HL-60; settings: for mean percentage of proliferation ± SE: 72 h, relative to control
Method: as §1, §2

HL-60 cells [4] = experiment: Metabolic activity, resazurin staining, HL-60; settings: for Metabolic activity, mean percentage ± SE: 72 h, relative to control
Method: as §1, §2, §3

AMO-1 cells [5] = experiment: Metabolic activity, resazurin staining, AMO-1; settings: for Metabolic activity, mean percentage ± SE: 72 h, relative to control
Method: as §1, §2, §3

AMO-1 cells [6] = experiment: Proliferation, [3H]-thymidine uptake, AMO-1; settings: 72 h, relative to control
Method: as §1, §2

MOLM-13 cells [7] = experiment: Metabolic activity, resazurin staining, MOLM-13; settings: for Metabolic activity, mean percentage ± SE: 72 h, relative to control
Method: [The source words this procedure for another cell line and reports this cell line under the same test.] as §1, §2, §3

KMS-12-PE cells [8] = experiment: Proliferation, [3H]-thymidine uptake, KMS-12-PE; settings: KMS-12 PE, 72 h, relative to control
Method: as §1, §2

Row | SMILES | Metabolic activity, mean percentage ± SE (KMS-12-PE cells [1]; 50 µM) [%] | Metabolic activity, mean percentage ± SE (KMS-12-PE cells [1]; 100 µM) [%] | mean percentage of proliferation ± SE (MOLM-13 cells [2]; MOLM-13, 50 µM) [%] | mean percentage of proliferation ± SE (MOLM-13 cells [2]; MOLM-13, 100 µM) [%] | mean percentage of proliferation ± SE (HL-60 cells [3]; HL-60, 50 µM) [%] | mean percentage of proliferation ± SE (HL-60 cells [3]; HL-60, 100 µM) [%] | Metabolic activity, mean percentage ± SE (HL-60 cells [4]; HL-60, 50 µM) [%] | Metabolic activity, mean percentage ± SE (HL-60 cells [4]; HL-60, 100 µM) [%] | Metabolic activity, mean percentage ± SE (AMO-1 cells [5]; AMO-1, 50 µM) [%] | Metabolic activity, mean percentage ± SE (AMO-1 cells [5]; AMO-1, 100 µM) [%] | mean percentage of proliferation ± SE (AMO-1 cells [6]; AMO-1, 50 µM) [%] | mean percentage of proliferation ± SE (AMO-1 cells [6]; AMO-1, 100 µM) [%] | Metabolic activity, mean percentage ± SE (MOLM-13 cells [7]; MOLM-13, 50 µM) [%] | Metabolic activity, mean percentage ± SE (MOLM-13 cells [7]; MOLM-13, 100 µM) [%] | mean percentage of proliferation ± SE (KMS-12-PE cells [8]; 50 µM) [%] | mean percentage of proliferation ± SE (KMS-12-PE cells [8]; 100 µM) [%] | Metabolic activity, mean percentage ± SE (KMS-12-PE cells [1]; 25 µM) [%] | mean percentage of proliferation ± SE (MOLM-13 cells [2]; MOLM-13, 25 µM) [%] | mean percentage of proliferation ± SE (HL-60 cells [3]; HL-60, 25 µM) [%] | Metabolic activity, mean percentage ± SE (HL-60 cells [4]; HL-60, 25 µM) [%] | other results
1 | COc1cc(O)c2c(=O)c(OC)c(-c3ccc(OC)c(OC)c3)oc2c1 [Compound 1, retusin] | 100.9 ± 4.1 | 95.1 ± 4.5 | 76.9 ± 4.7 | 57.8 ± 6.8 | 76.0 ± 3.0 | 65.6 ± 3.1 | 93.0 ± 4.4 | 85.9 ± 1.8 | 91.4 ± 8.9 | 81.0 ± 4.2 | 73.5 ± 7.5 | 66.9 ± 7.8 | 88.5 ± 3.8 | 80.5 ± 2.6 | 85.2 ± 1.8 | 73.0 ± 1.9 | – | – | – | – | –
2 | COc1cc(O)c2c(=O)c(O)c(-c3cc(O)c(OC)c(OC)c3)oc2c1 [Compound 2, 7,3′,4′-trimetoxymyricetin] | 62.7 ± 2.6 | 44.5 ± 4.0 | 35.4 ± 4.2 | 3.8 ± 1.0 | 36.7 ± 2.5 | 2.5 ± 0.5 | 79.6 ± 7.0 | 32.1 ± 2.8 | 68.9 ± 4.1 | 41.8 ± 6.4 | 27.0 ± 4.0 | 4.8 ± 1.0 | 65.4 ± 3.6 | 48.9 ± 5.5 | 16.1 ± 0.9 | 2.6 ± 0.4 | 87.9 ± 2.6 | 77.8 ± 9.6 | 69.8 ± 2.5 | 93.2 ± 7.8 | inhibition at 100 µM (KMS-12-PE cells [1]; Homo sapiens, 100 µM): > 50%; inhibition at 100 µM (HL-60 cells [4]; Homo sapiens, HL-60, 100 µM): > 50%; Metabolic activity, mean percentage ± SE (AMO-1 cells [5]; AMO-1, 25 µM): 81.3 ± 6.3 %; inhibition at 100 µM (AMO-1 cells [5]; Homo sapiens, AMO1, AMO-1, 100 µM): > 50%; mean percentage of proliferation ± SE (AMO-1 cells [6]; AMO-1, 25 µM): 69.2 ± 5.3 %; inhibition at 100 µM (MOLM-13 cells [7]; Homo sapiens, MOLM-13, 100 µM): > 50%; Metabolic activity, mean percentage ± SE (MOLM-13 cells [7]; MOLM-13, 25 µM): 77.8 ± 2.1 %; mean percentage of proliferation ± SE (KMS-12-PE cells [8]; 25 µM): 64.5 ± 2.9 %
3 | COc1ccc(-c2cc(=O)c3c(O)cc(O)cc3o2)cc1O [Compound 3, diosmetin] | 81.3 ± 3.2 | 57.2 ± 4.7 | 11.7 ± 1.6 | 1.1 ± 0.4 | 59.9 ± 3.6 | 19.7 ± 3.7 | 84.5 ± 2.2 | 56.7 ± 3.5 | 76.8 ± 3.7 | 54.5 ± 5.5 | 42.0 ± 5.0 | 9.0 ± 0.8 | 51.2 ± 7.2 | 41.2 ± 5.0 | 38.2 ± 4.1 | 16.4 ± 2.4 | 93.7 ± 4.9 | 36.5 ± 2.9 | 71.4 ± 1.5 | 93.2 ± 3.1 | Metabolic activity, mean percentage ± SE (AMO-1 cells [5]; AMO-1, 25 µM): 95.4 ± 2.4 %; mean percentage of proliferation ± SE (AMO-1 cells [6]; AMO-1, 25 µM): 65.9 ± 9.4 %; Metabolic activity, mean percentage ± SE (MOLM-13 cells [7]; MOLM-13, 25 µM): 62.5 ± 10.1 %; inhibition of metabolic activity (MOLM-13 cells [7]; MOLM-13, 100 µM): induced antimetabolic activity; mean percentage of proliferation ± SE (KMS-12-PE cells [8]; 25 µM): 74.5 ± 6.9 %
4 | COc1cc(O)c2c(=O)c(OC)c(-c3ccc(O)c(O)c3)oc2c1 [Compound 4, 3,7-di-O-methylquercetin] | 92.4 ± 8.7 | 82.4 ± 7.7 | 13.1 ± 2.7 | 8.8 ± 3.1 | 23.3 ± 6.5 | 18.5 ± 4.0 | 69.8 ± 5.1 | 69.7 ± 5.5 | 57.1 ± 10.5 | 46.9 ± 11.7 | 29.7 ± 4.1 | 19.2 ± 5.1 | 63.6 ± 6.4 | 61.7 ± 6.9 | 50.4 ± 5.2 | 29.7 ± 6.0 | 103.0 ± 9.9 | 32.6 ± 5.5 | 37.6 ± 7.7 | 80.8 ± 5.9 | Metabolic activity, mean percentage ± SE (KMS-12-PE cells [1]; 10 µM): 110.1 ± 10.2%; inhibition at 10 µM (MOLM-13 cells [2]; Homo sapiens, MOLM-13, 10 µM): > 50%; mean percentage of proliferation ± SE (MOLM-13 cells [2]; MOLM-13, 10 µM): 42.3 ± 11.2 %; mean percentage of proliferation ± SE (HL-60 cells [3]; HL-60, 10 µM): 45.9 ± 8.9 %; inhibition at 10 µM (HL-60 cells [3]; Homo sapiens, HL-60, 10 µM): > 50%; Metabolic activity, mean percentage ± SE (HL-60 cells [4]; HL-60, 10 µM): 86.1 ± 6.1 %; Metabolic activity, mean percentage ± SE (AMO-1 cells [5]; AMO-1, 10 µM): 91.5 ± 9.9%; Metabolic activity, mean percentage ± SE (AMO-1 cells [5]; AMO-1, 25 µM): 70.2 ± 10.8 %; inhibition of metabolic activity (AMO-1 cells [5]; AMO-1, 100 µM): induced antimetabolic activity; mean percentage of proliferation ± SE (AMO-1 cells [6]; AMO-1, 10 µM): 73.3 ± 11.4 %; mean percentage of proliferation ± SE (AMO-1 cells [6]; AMO-1, 25 µM): 57.5 ± 9.2 %; Metabolic activity, mean percentage ± SE (MOLM-13 cells [7]; MOLM-13, 10 µM): 81.1 ± 4.2 %; Metabolic activity, mean percentage ± SE (MOLM-13 cells [7]; MOLM-13, 25 µM): 77.9 ± 4.3 %; mean percentage of proliferation ± SE (KMS-12-PE cells [8]; 10 µM): 89.0 ± 5.2%; mean percentage of proliferation ± SE (KMS-12-PE cells [8]; 25 µM): 80.9 ± 3.2 %
